Where “and” joins values, the source holds several entries; their conditions need not be identical. Equal values may be shown once.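 Results reflect a 48-hour exposure of cells in 96-well plates to compound at five concentrations. GI50 is the concentration that inhibits growth by half. TGI is the concentration that stops growth completely.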
Tests used:
Assay in all cases: growth of human tumour cells (NCI), 48 h
CCRF-CEM leukemia = test system: CCRF-CEM leukemia
EKVX NSCLC = test system: EKVX NSCLC
HCT-15 colon = test system: HCT-15 colon
HOP-62 NSCLC = test system: HOP-62 NSCLC
K-562 leukemia = test system: K-562 leukemia
MOLT-4 leukemia = test system: MOLT-4 leukemia
SF-539 CNS = test system: SF-539 CNS
SK-MEL-28 melanoma = test system: SK-MEL-28 melanoma
UACC-257 melanoma = test system: UACC-257 melanoma
UACC-62 melanoma = test system: UACC-62 melanoma

Row | SMILES | TGI (CCRF-CEM leukemia) | TGI (EKVX NSCLC) | TGI (HCT-15 colon) | TGI (HOP-62 NSCLC) | TGI (K-562 leukemia) | TGI (MOLT-4 leukemia) | TGI (SF-539 CNS) | TGI (SK-MEL-28 melanoma) | TGI (UACC-257 melanoma) | TGI (UACC-62 melanoma) | GI50 (CCRF-CEM leukemia) | GI50 (EKVX NSCLC) | GI50 (HCT-15 colon) | GI50 (HOP-62 NSCLC) | GI50 (K-562 leukemia) | GI50 (MOLT-4 leukemia) | GI50 (SF-539 CNS) | GI50 (SK-MEL-28 melanoma) | GI50 (UACC-257 melanoma) | GI50 (UACC-62 melanoma)
1 | COC(=O)C1C(=O)O[C@@H](c2cc(OC)c(OC)cc2OC)C1C(=O)OC (mixture of isomers) | > 100 µM | > 100 µM | > 100 µM | > 100 µM | > 100 µM | > 100 µM | > 100 µM | > 100 µM | > 100 µM | > 100 µM |  |  |  |  |  |  |  |  |  | 
2 | CCc1nc2ccc(N=Nc3c(O)ccc4ccccc34)cc2[nH]1 | 26.4 µM | 36.1 µM | 33.4 µM | 43.6 µM | > 66.1 µM | 81.1 µM | 35.4 µM | 41.5 µM | 29.4 µM | 35.3 µM |  |  |  |  |  |  |  |  |  | 
3 | O=C(c1ccc(Cl)cc1)c1ccc(OCCCOc2ccc(C(=O)c3ccc(Cl)cc3)cc2Cl)c(Cl)c1 | > 100 µM | > 100 µM | > 100 µM | > 100 µM | > 100 µM | > 100 µM | > 100 µM | > 100 µM | > 100 µM | > 100 µM |  |  |  |  |  |  |  |  |  | 
4 | CC(=O)C1=C(O)C=C2Oc3c(C(=O)/C=C/c4cc(Cl)cc(Cl)c4)c(O)c(C)c(O)c3[C@]2(C)C1=O | 2.65 µM | 2.27 µM | 2.54 µM | 1.67 µM | 15 µM | 1.33 µM | 2.26 µM | 2.76 µM | 2.5 µM | 1.62 µM | 0.498 µM | 0.444 µM | 0.539 µM | 0.48 µM | 0.497 µM | 0.409 µM | 0.552 µM | 0.637 µM | 0.535 µM | 0.434 µM
5 | COc1cc(C2c3cc4c(cc3C(OC(=O)C[n+]3ccccc3)C3COC(=O)C23)OCO4)cc(OC)c1OC (stereo not given) | > 100 µM | > 100 µM | > 100 µM | > 100 µM | > 100 µM | > 100 µM | < 0.0278 µM | > 100 µM | > 100 µM | > 100 µM | < 0.0205 µM | 0.436 µM | < 0.0171 µM | < 0.0259 µM | < 0.0173 µM | < 0.0197 µM | < 0.0154 µM | 53 µM | > 100 µM | 10.7 µM
6 | COc1cc(C(=O)c2cnc(-c3cccc4[nH]ccc34)[nH]2)cc(OC)c1OC | > 100 µM | > 100 µM | > 100 µM | 20 µM | 42.3 µM | > 100 µM |  | > 100 µM | > 100 µM | 93.6 µM |  |  | 0.0915 µM and < 0.01 µM | < 0.01 µM | 0.0386 µM and < 0.01 µM |  | 0.0278 µM and < 0.01 µM | < 0.01 µM | 11.9 µM | 0.0509 µM and < 0.01 µM
7 | NC1=NN(c2ccccc2)C(=O)C1C(=O)C(=O)Nc1ccc(Cl)c(Cl)c1 (stereo not given) | > 100 µM | > 100 µM | > 100 µM | > 100 µM | > 100 µM | > 100 µM | > 100 µM | > 100 µM | > 100 µM | > 100 µM |  |  |  |  |  |  |  |  |  | 
8 | Clc1ccccc1-c1nnc2c(Cc3ccccc3)nc3ccccc3n12 | > 100 µM | > 100 µM | > 100 µM | > 100 µM | > 100 µM | > 100 µM | > 100 µM | > 100 µM | > 100 µM | > 100 µM | 7.11 µM | 12.7 µM | 1.56 µM | 9.92 µM | 5.55 µM | 9.04 µM | 24.2 µM | > 48.8 µM | 33.3 µM | 6.9 µM
9 | COC(=O)c1oc2c(C(=O)/C=C/c3ccc(OC)cc3)c(OCCN(C)C)ccc2c1C | 6.93 µM | 19 µM | 16.8 µM | 38.7 µM | 8.49 µM | 7.47 µM | 24.1 µM | 20.9 µM | 29.2 µM | 27.1 µM | 2.24 µM | 6.4 µM | 4.13 µM | 20.5 µM | 2.24 µM | 2.59 µM | 11.3 µM | 7.73 µM | 14.1 µM | 12.3 µM
10 | Cn1c2c(c3c(Cl)nncc31)Cc1ccccc1-2 | > 100 µM | 44.3 µM | > 100 µM | > 100 µM | > 100 µM |  | 76.1 µM | > 100 µM | > 100 µM | 62 µM | 15.3 µM | 5.79 µM | 22.2 µM | 25.2 µM | 25.9 µM | 3.12 µM | 20 µM | 30.2 µM | 48.7 µM | 13.9 µM
11 | CCNC(=O)Oc1ccc(/C(=C(/C)Cc2ccc(OC)cc2)c2ccc(OCCN(CC)CC)cc2)cc1 | 7.96 µM | 5.03 µM | 3.06 µM | 4.14 µM | 6.09 µM | 9.71 µM | 3.25 µM | 3.53 µM | 3.42 µM | 3.38 µM | 2.66 µM | 1.7 µM | 1.51 µM | 1.68 µM | 2 µM | 2.64 µM | 1.61 µM | 1.76 µM | 1.79 µM | 1.86 µM
12 | Cc1cc(C)c(-c2noc(-c3ccc(Cl)cc3)c2C2=NCCCN2)c(C)c1 | 73.9 µM | > 100 µM | > 100 µM | 85.8 µM | 37.7 µM | 41.7 µM | 30.5 µM | 29.9 µM | 40.6 µM | 40.7 µM |  |  |  |  |  |  |  |  |  | 
13 | CCN(Cc1cccc(Cl)c1)c1ccc(CO)c(Cl)c1 | 35.4 µM | 27 µM | 25.9 µM | 16.3 µM | > 50 µM | 34.7 µM | 30.8 µM | 28.7 µM | 0.404 µM | 1.07 µM | 11.9 µM | 12.4 µM | 9.93 µM | 2.09 µM | 1.65 µM | 12.1 µM | 15.9 µM | 14.5 µM | 0.134 µM | 0.116 µM
14 | CCCCCCCCCCCCOC1C(CNC(=O)C2OC3OC(C)(C)OC3C2NC(=O)CN2CCN(c3ccc(OC)cc3)CC2)OC2OC(C)(C)OC21 (stereo not given) | 16.9 µM | 17 µM | 11.3 µM | 20.5 µM | 11.2 µM | 10.8 µM | 22 µM | 23.3 µM | 12.7 µM | 18.3 µM | 4.1 µM | 5.46 µM | 3.53 µM | 5.07 µM | 3.31 µM | 3.12 µM | 6.09 µM | 5.86 µM | 3.83 µM | 5.44 µM
15 | CC(=O)N1N=C(c2ccc(Nc3nc(Nc4ccc(F)cc4)nc(Nc4ccc(F)cc4)n3)cc2)CC1c1ccc(N(C)C)cc1 (stereo not given) | 49.9 µM | > 100 µM | 7.43 µM | 26 µM | 7.31 µM | 5.7 µM | 41.2 µM | 19.3 µM | 23.5 µM | 12.3 µM | 3.36 µM | 15.7 µM | 2.41 µM | 5.98 µM | 2.69 µM | 1.57 µM | 12.8 µM | 4.33 µM | 7.14 µM | 2.95 µM
16 | CC1C2C=C(O)C(=O)C(C2=O)C1c1ccccc1 (stereo not given) | > 100 µM | > 100 µM | > 100 µM | > 100 µM | > 100 µM | > 100 µM | > 100 µM | > 100 µM | > 100 µM | > 100 µM |  |  |  |  |  |  |  |  |  | 
17 | Nc1ccccc1C(=O)CCC1C(=O)NC(=S)NC1=O | > 100 µM | > 100 µM | > 100 µM | > 100 µM | > 100 µM | > 100 µM | > 100 µM | > 100 µM | > 100 µM | > 100 µM |  |  |  |  |  |  |  |  |  | 
18 | Clc1cccc(-c2nnc(-c3nn(-c4ccccc4)c4nc5ccccc5nc34)o2)c1 | > 100 µM | > 100 µM | > 100 µM | > 100 µM | > 100 µM | > 100 µM | > 100 µM | > 100 µM | > 100 µM | > 100 µM |  |  |  |  |  |  |  |  |  | 
19 | Cc1cc(Nc2cc(N3CCN(C)CC3)nc(/C=C/c3ccccc3)n2)n[nH]1 | > 10 µM | > 7.24 µM | > 10 µM | > 3.98 µM | > 10 µM | > 10 µM | 2.05 µM | > 5.48 µM | > 5.32 µM | > 3.51 µM | 0.412 µM | 1.21 µM | 0.326 µM | 0.768 µM | 0.644 µM | 0.186 µM | 0.718 µM | 1.41 µM | 1.98 µM | 1.07 µM
20 | Cc1cc(=O)n(-c2cc3cccccc-3n2)[nH]1 | > 100 µM | 96.7 µM | 25.5 µM | > 100 µM | 15.5 µM | > 100 µM | 59 µM | > 100 µM | 48.3 µM | 7.61 µM |  |  |  |  |  |  |  |  |  | 
21 | N#Cc1cnc(Nc2cc(NC[C@H]3CNCCO3)c(C(F)(F)F)cn2)cn1 | > 100 µM | 59.4 µM | > 100 µM | 36.8 µM | 22.1 µM | 55.2 µM | 17.3 µM | 46.5 µM | 45.8 µM | 25.1 µM | 0.8 µM | 17.5 µM | 11 µM | 6.54 µM | 3.19 µM | 3.61 µM | 0.669 µM | 16.3 µM | 19.3 µM | 5.17 µM
22 | CC1=CC(C)(C)NN1C1=NS(=O)(=O)c2ccccc2N1C | > 100 µM | > 100 µM | > 100 µM | > 100 µM | > 100 µM | > 100 µM | > 100 µM | > 100 µM | > 100 µM | > 100 µM |  |  |  |  |  |  |  |  |  | 

Reference: PubChem BioAssay (NCI)
